Test results taken from patent publication US8058295B2, “Cystic fibrosis transmembrane conductance regulator protein inhibitors and uses thereof” (The Regents of the University of California, priority 2002, dated 2011).
Entries after “also recorded” stand apart in the source; their conditions may differ.

Key:
[1] = tested on: Volume-sensitive Cl^− channels; test: Volume-activated Cl^− current, whole-cell patch clamp in FRT cells; format: cell-based, rat; conditions: 5 μM; 250 mosM/kg hypotonic solution
Source text: FIG. 4B is a graphical representation of volume-activated Cl^− current (hypotonic 250 mosM/kg H2O) measured in whole-cell patch clamp experiments on FRT cells.

water channel (AQP1) = molecular target: T1, water channel (AQP1) (Homo sapiens, UniProt P29972); test: Water channel block; conditions: 5 μM
T1 sequence (P29972 1-269): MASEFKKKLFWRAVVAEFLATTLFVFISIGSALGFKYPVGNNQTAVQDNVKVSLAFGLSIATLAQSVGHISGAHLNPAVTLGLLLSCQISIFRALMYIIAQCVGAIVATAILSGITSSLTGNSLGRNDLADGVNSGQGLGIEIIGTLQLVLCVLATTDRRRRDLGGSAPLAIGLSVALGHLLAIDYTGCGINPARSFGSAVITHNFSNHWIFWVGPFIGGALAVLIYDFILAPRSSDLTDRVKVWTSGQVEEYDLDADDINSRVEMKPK

[2] = molecular target: T2, Na^+/H^+ exchanger (NHE3) (Homo sapiens, UniProt P48764); test: Na^+/H^+ exchanger block; conditions: 5 μM
T2 sequence (P48764 26-834): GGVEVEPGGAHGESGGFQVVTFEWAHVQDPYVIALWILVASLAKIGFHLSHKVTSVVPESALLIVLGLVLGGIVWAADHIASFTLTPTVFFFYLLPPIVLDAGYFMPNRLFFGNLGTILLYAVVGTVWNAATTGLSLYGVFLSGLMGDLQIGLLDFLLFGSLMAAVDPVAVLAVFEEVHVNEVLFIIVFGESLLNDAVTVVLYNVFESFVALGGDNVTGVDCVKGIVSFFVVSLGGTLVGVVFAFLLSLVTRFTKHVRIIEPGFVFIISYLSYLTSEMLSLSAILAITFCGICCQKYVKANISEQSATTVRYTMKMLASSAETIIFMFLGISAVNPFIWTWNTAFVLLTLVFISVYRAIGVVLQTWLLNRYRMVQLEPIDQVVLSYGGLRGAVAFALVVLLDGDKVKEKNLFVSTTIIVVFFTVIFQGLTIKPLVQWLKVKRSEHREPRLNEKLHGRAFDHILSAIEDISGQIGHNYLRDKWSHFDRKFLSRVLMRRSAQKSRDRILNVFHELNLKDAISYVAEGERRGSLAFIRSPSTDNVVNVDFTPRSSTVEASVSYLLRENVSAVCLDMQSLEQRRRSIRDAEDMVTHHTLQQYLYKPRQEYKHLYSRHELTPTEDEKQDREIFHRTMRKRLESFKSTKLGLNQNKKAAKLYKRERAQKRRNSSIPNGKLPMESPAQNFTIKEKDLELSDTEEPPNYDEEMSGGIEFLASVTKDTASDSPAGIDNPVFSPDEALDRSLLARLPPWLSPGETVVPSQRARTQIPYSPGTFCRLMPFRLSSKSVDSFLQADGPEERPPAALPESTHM

[3] = molecular target: T3, Cl^−/HCO3^− exchanger (AE1) (Homo sapiens, UniProt P02730); test: Cl^−/HCO3^− exchanger block; conditions: 5 μM
T3 sequence (P02730 1-911): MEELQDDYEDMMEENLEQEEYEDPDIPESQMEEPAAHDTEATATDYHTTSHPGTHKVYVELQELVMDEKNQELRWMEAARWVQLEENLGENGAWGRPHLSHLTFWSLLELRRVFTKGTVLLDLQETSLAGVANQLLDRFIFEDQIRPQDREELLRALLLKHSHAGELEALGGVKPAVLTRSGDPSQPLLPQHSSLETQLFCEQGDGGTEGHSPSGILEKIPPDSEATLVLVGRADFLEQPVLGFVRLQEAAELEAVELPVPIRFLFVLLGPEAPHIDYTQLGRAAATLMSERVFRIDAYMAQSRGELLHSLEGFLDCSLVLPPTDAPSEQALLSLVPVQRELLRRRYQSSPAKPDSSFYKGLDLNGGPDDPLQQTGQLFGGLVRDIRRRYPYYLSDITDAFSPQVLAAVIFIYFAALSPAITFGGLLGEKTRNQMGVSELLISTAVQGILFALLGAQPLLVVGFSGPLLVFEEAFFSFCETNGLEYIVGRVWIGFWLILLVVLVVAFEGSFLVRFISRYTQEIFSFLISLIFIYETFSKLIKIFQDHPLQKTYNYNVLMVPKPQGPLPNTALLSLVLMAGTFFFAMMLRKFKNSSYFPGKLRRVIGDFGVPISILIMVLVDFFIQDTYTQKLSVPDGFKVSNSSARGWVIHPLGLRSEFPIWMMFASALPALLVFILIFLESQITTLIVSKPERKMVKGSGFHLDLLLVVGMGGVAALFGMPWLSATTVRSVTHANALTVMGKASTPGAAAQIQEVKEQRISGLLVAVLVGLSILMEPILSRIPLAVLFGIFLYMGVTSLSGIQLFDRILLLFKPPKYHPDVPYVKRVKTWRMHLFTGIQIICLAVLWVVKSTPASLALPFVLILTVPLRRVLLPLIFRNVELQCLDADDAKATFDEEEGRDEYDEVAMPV

Animal toxicity in mice = format: in vivo
[4] = tested on: cholera toxin-induced intestinal fluid secretion; design: species or system mice; conditions: mouse, in vivo, ip
CFTR [5] = molecular target: T4, CFTR (Homo sapiens, UniProt P13569)
T4 sequence (P13569 whole entry): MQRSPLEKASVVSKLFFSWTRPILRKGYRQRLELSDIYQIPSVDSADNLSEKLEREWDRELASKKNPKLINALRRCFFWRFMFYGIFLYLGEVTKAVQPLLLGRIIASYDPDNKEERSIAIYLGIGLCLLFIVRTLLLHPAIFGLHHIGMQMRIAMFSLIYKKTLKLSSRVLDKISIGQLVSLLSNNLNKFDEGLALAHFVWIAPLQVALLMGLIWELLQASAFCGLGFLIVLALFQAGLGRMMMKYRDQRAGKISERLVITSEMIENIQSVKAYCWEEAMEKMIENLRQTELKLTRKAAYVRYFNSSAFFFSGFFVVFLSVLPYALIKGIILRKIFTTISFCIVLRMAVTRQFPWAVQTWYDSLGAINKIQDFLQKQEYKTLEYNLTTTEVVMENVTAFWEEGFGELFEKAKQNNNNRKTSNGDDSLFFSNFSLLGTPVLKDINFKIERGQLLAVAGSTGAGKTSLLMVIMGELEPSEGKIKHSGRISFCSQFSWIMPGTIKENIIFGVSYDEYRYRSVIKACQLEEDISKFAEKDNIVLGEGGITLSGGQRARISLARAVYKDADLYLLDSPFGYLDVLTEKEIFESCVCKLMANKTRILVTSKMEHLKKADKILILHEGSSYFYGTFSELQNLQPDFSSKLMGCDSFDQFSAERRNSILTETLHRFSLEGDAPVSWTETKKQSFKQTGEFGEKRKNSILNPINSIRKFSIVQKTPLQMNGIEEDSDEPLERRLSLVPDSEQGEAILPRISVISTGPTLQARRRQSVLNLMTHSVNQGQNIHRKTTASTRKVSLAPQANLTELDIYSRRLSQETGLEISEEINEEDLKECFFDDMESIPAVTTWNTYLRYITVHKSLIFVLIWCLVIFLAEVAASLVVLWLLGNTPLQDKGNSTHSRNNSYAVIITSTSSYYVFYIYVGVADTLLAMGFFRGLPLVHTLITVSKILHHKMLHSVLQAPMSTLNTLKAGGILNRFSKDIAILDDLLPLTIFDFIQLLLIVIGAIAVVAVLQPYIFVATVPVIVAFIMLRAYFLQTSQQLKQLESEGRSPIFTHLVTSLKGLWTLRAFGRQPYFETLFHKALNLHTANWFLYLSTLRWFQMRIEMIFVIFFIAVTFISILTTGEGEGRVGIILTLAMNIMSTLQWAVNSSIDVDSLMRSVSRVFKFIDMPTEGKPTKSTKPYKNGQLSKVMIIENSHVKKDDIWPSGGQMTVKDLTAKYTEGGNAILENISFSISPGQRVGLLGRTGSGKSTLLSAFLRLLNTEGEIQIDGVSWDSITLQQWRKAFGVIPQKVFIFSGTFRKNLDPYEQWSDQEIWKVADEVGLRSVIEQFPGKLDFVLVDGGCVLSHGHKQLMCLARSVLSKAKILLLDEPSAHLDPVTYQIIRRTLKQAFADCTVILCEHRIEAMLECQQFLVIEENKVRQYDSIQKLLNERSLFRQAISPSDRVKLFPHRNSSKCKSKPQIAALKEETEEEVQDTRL

CFTR [6] = molecular target: T4, CFTR; test: Short-circuit current in T84 colonic epithelial cells
CFTR [7] = molecular target: T4, CFTR; test: Electrophysiological studies in Calu-3 cells; format: cell-based; design: cells that natively express wildtype CFTR, including T84 cells; endogenous in cells; host or cells: T84 colonic epithelial cells (UCSF cell culture facility); conditions: read-out: apparent potency in electrophysiological studies
[8] = intraperitoneal 1000 μg/kg daily for 7 days

O=C(O)c1ccc(/C=C2\SC(=S)N(c3cccc(C(F)(F)F)c3)C2=O)cc1 [CFTRinh-172, 3-[(3-trifluoromethyl)phenyl]-5-[(4-carboxyphenyl)methylene]-2-thioxo-4-thiazolidinone]
block of volume-activated Cl^− currents [1]: did not block
block of water channel (AQP1) (water channel (AQP1)): did not block
block of Na^+/H^+ exchanger (NHE3) [2]: did not block
block of Cl^−/HCO3^− exchanger (AE1) [3]: did not block
food and water intake (Animal toxicity in mice; [8]): not diminished
overt toxicity (Animal toxicity in mice; [8]): did not cause overt toxicity
serum electrolyte concentrations, glucose, liver function indices, serum creatinine, amylase and hematocrit (Animal toxicity in mice; [8]): not changed
overt toxicity (Animal toxicity in mice; single systemic dose 10 mg/kg): did not cause overt toxicity
fluid accumulation in cholera toxin-treated loops [4]: effectively prevented fluid accumulation; also recorded: significantly reduced fluid secretion to that in saline control loops
inhibition of fluid accumulation in cholera toxin-injected loops [4]: ~90%
inhibition of luminal fluid accumulation [4]: significant inhibition of luminal fluid accumulation; also recorded: much less inhibition
t1/2 for persistence of inhibition [4]: 9 to 10 h
effect on membrane current (CFTR [5]; 2 μM extracellular perfusion, after 5 μM forskolin): rapid reduction in current at all membrane potentials
inhibition at 0.2 µM (CFTR [5]; FRT, read-out: inhibition of membrane current): ~50%
IC50 (CFTR [6]): ~3000 nM
Ki (CFTR [6]; KI, cells depolarized by high-K^+ basolateral solution): ~300 nM
Ki (CFTR [6]; apparent KI, after basolateral permeabilization with amphotericin B, Cl^− gradient): 300 nM
Ki (CFTR [6]; apparent KI, non-permeabilized T84 cells): ~3000 nM
IC50 (CFTR [7]): 500 nM
